Data from US20040059104A1, “Nucleotide mimics and their prodrugs” (priority 2002, published 2004).

Experiments:
in vitro [1] = details: bovine, serum, Half-Life, Serum Half-Lives of NTPs and AZT Triphosphate Mimics
in vitro [2] = details: human, pH 7.4
CEM cells = test: Cell uptake procedure (intracellular nucleotide levels by HPLC); format: cell-based, Human; details: 24 hour incubation, limit of detection about 5 pmol/10^6 cells
Protocol: CEM cells were resuspended in RPMI at 1×10^7 cells/mL. The appropriate amount of each compound was added to well and then 0.5 ml of the cells was aliquoted into the appropriate number of wells of a 24-well plate and incubated the cells at 37° C. Cells were harvested after 24 hours of incubation. To harvest cells they were transferred to a microfuge tube and spun for one minute at high speed. The samples were washed in PBS containing 1 mg/ml BSA and re-centrifuged. The PBS was then aspirated and 200 μL of ice-cold 60% methanol was added to extract the nucleotides. The extracts were incubated overnight at −20° C. The next day the samples were spun at high speed in a microfuge for 20 minutes and the supernatant transferred to clean tubes and dried in the speed vac. After drying the samples were resuspended in 50 μl, filtered, and the samples then directly injected onto the HPLC. The nucleotides were analyzed using reverse phase HPLC with ion-pairing agents for separation of the nucleotides. The procedure was adapted from the following paper: Furman, et al., Proc. Natl. Acad. Sci. USA 1986, 83, 8333-8337.
The limit of detection was estimated to be 5 pmol/10^6 cells.

## [BH3-][P+](O)(OCC1OC(n2cc(C)c(=O)[nH]c2=O)CC1N=[N+]=[N-])OP(=O)(O)C(F)(F)P(=O)(O)O (single isomer, unassigned) [Compound 27-isomer 1, 3′-Azido-3′-deoxythymidine 5′-α-P-borano-β,γ-(difluoromethylene)triphosphate]
In vitro [1]
  half-life at 500 μM: > 48 h
In vitro [2]
  half-life at 500 μM: > 48 h
CEM cells; incubation concentration 25 μM
  Intracellular levels of 27: BLD
CEM cells; incubation concentration 50 μM
  Intracellular levels of 27: 5.6 pmol/10^6 cells
CEM cells; incubation concentration 100 μM
  Intracellular levels of 27: 10.6 pmol/10^6 cells
